Measurements from PubChem BioAssay AID652241 (Broad Institute, 2013).
Records with an inconclusive call do not appear. Calls of active or inactive are those of the source.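 How the source made its calls: active means fitted curve reaches activity 50 in the expected rising direction at or below the top valid tested dose; inconclusive means no clear call, values can overlap the other calls; inactive means activity in the wrong direction, and the rest.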

Target: Virion infectivity factor (Human immunodeficiency virus type 1 group M subtype B (isolate BH10)) + Virion infectivity factor (Human immunodeficiency virus type 1 group M subtype B (isolate BRU/LAI)) + Virion infectivity factor (Human immunodeficiency virus type 1 group M subtype B (isolate PCV12)) + Virion infectivity factor (Human immunodeficiency virus type 1 group M subtype B (isolate HXB2)) (UniProt P69720+P69721+P69722+P69723)
Test: dose-dependent disruption of HIV Vif self-association – imaging, HEK293T, cherry-picks, dose response (AID 652241);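 further: imaged cell signal that rises when Vif self-association is disrupted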
Conditions: HEK293T Vif multimerization imaging, 24 h

Compound | AC50
Cc1nc(-c2ccc(O)c(O)c2)cs1 | > 19.5 µM (inactive)
COC(=O)c1ccc(Oc2coc3cc(OCc4cnn(-c5ccccc5)c4)ccc3c2=O)cc1 | 17.2 µM
Cc1cc2cc(C#N)c(SCC(=O)Nc3nonc3C)nc2cc1C | 8.45 µM
Cc1cc(Cl)n2c(nc3cc(F)c(F)cc32)c1C#N | 5.68 µM
COc1ccc(S(=O)(=O)Nc2cc3c(C(C)=O)c(C)oc3c3ccccc23)cc1 | 9.23 µM
Clc1ccc(-n2nnnc2Sc2ncnc3sccc23)cc1 | > 6.8 µM (inactive)
COc1ccc(-c2cc(N)n(S(=O)(=O)c3c(F)c(F)c(F)c(F)c3F)n2)cc1OC | 13.4 µM
O=C(/C=C/c1ccccc1)Nc1ncn[nH]1 | 19.5 µM
Cc1ccc(CCC(=O)Nc2ncc(Cc3cc(Cl)ccc3Cl)s2)o1 | 2.02 µM
CC(=O)Nc1ccc(NC(=O)COc2ccccc2C(=O)Nc2cccc(Cl)c2Cl)cc1 | 5.9 µM
O=C(NC1(C(F)(F)F)Oc2ccc(Cl)cc2O1)N1CCC2(CC1)OCCO2 (stereo not given) | 7.65 µM
COc1cccc(NC(=O)NC2(C(F)(F)F)Oc3ccccc3O2)c1 | > 19.5 µM (inactive)
COc1cccc(N2CCN(C(=O)c3ccc(CS(=O)c4ccc(C)cc4)o3)CC2)c1 (stereo not given) | 12.9 µM
COc1cc(-c2cnc3c(NC=O)cc(-c4ccccc4Cl)cn23)cc(OC)c1OC | 3.03 µM
CCc1ccc(S(=O)(=O)Nc2ccc(-c3ccc4nnc(C)n4n3)cc2)s1 | 11.4 µM
c1ccc(-c2cn3nc(-c4ccccc4)c(-c4ccccc4)nc3n2)cc1 | 19.2 µM
Cc1ccnc(NC(=O)CCCOc2cc(=O)n(C)c3ccccc23)c1 | 1.79 µM
COc1ccc(-c2cc(-c3nc4ccccn4c3NCc3ccccc3)ccc2OC)cc1 | 3.66 µM
CCN(CC)C1Oc2cc3c(cc2C(c2cc(OC)c(OC)c(OC)c2)C1C)OCO3 (stereo not given) | 6.24 µM
CCCc1cc(=O)oc2cc(OCc3cc(OC)c(OC)c(OC)c3)c(Cl)cc12 | 19.1 µM
CCOc1ccccc1NC(=O)Cn1nnc(C(=O)NCc2cccs2)c1N | 5.28 µM

Same assay, conditions: HEK293T Vif multimerization imaging, 24 h; at 2.1 µM (top of the series)

Compound | activity, higher = inhibition
Cc1nc(NC(=O)C(C)Oc2cccc(Cl)c2)sc1C(=O)N(C)C (stereo not given) | inactive

Same assay, conditions: HEK293T Vif multimerization imaging, 24 h; at 6.8 µM (top of the series)

Compound | activity, higher = inhibition
CCCN1C(=O)/C(=C\C=C2\N(CC)c3ccccc3C2(C)C)SC1=S | inactive
O=C1Nc2ccccc2S/C1=C/Nc1cccc(Cl)c1 | inactive
CCc1nnc(NC(=O)c2sc3nc4cc(C)ccc4cc3c2N)s1 | inactive
COc1ccc(OC)c(NC(=O)c2cc3ccccc3cc2OC)c1 | inactive

Same assay, conditions: HEK293T Vif multimerization imaging, 24 h; at 19.5 µM (top of the series)

Compound | activity, higher = inhibition
COc1ccc(CNC(=O)COC(=O)c2cc(S(=O)(=O)N3CCOCC3)ccc2O)cc1OC | inactive
O=C(c1ccc(Cl)c(Cl)c1)N(Cc1ccco1)c1ccc(O)cc1 | inactive
CC(C)C(c1nnnn1CC1CCCO1)N1CCN(C2CCCC2)CC1 (stereo not given) | inactive
CCN1c2ccccc2NC2C1C(C(C)=O)C(=O)N2c1ccc(Cl)cc1 (stereo not given) | inactive
Cc1cccc(N2CCN(C(=O)c3cc4ccccc4oc3=O)CC2)c1C | inactive
CC(C)(C)NC(=O)CN(Cc1ccc(F)cc1)C(=O)Cn1nnc(-c2ccc(F)cc2)n1 | inactive
CN(Cc1ccccc1)C(=O)CCC1CCN(C(=O)c2ccco2)CC1 | inactive
CC(NC(=O)CSc1nc2c(c(C(F)(F)F)n1)CCc1ccccc1-2)c1ccccc1 (stereo not given) | inactive
O=C(CCCSc1nc2ccccc2c(=O)[nH]1)c1ccccc1 | inactive
O=C(Nc1cccc(-c2cc3ccccc3oc2=O)c1)c1ccc(Br)o1 | inactive
Cc1ccc(CNCCCSc2ncccn2)cc1 | inactive
COc1ccc([C@H]2CC(=O)C=C(c3cc4ccccc4s3)C2)cc1 | inactive
COc1ccc2cc(CCNS(=O)(=O)c3ccc(NC(C)=O)cc3)c(=O)[nH]c2c1 | inactive
CC(C)c1ccc(NC(=O)N2CCCC2C(=O)Nc2ccc(-n3cnnn3)cc2)cc1 (stereo not given) | inactive
CC(C)OCCCNc1ncnc2c1[nH]c1ccc(F)cc12 | inactive
CC(C)CCNC(=O)CCc1nnc(COc2ccccc2)o1 | inactive
CCCCOc1cccc2c(=O)n(CC(=O)Nc3ccc4c(c3)OCCO4)ccc12 | inactive
CC(C)C(=O)N=C1SC2CS(=O)(=O)CC2N1Cc1ccccc1 (stereo not given) | inactive
COc1ccc(CN(CC(=O)NC2CCCC2)C(=O)CN2C(=O)COc3ccccc32)cc1 | inactive
O=C(COC(=O)/C=C/C(=O)OCC(=O)Nc1ccccc1F)Nc1ccccc1F | inactive
C=CCN1C(=O)/C(=C/c2ccc(-c3ccc(F)cc3)o2)SC1=S | inactive
CCN(CC)C(=O)c1cccc(NC(=O)C2=COCCO2)c1 | inactive
COc1cc(/C=C/C(=O)OCC(=O)N2CCCc3ccccc32)ccc1O | inactive

Compound | activity, higher = inhibition
Cc1cc(-c2nnc(SCC(=O)c3ccc(Cl)cc3)o2)no1 | inactive
CC(C)CN(C(=O)COC(=O)CSc1ccccc1)c1c(N)n(Cc2ccccc2)c(=O)[nH]c1=O | inactive
COc1ccc(OC)c(/C(O)=C/C(=O)C(=O)Nc2cc(C)ccc2OC)c1 | inactive
COC(=O)c1sc(-c2ccc(Cl)cc2)cc1NC(=O)CSCC(=O)O | inactive
COc1ccc(NC(=O)Cn2nnc(C(=O)Nc3ccccc3C)c2N)cc1 | inactive
CCCCOc1ncnc2c1[nH]c1ccccc12 | inactive
COc1ccc(S(=O)(=O)Nc2cccc3ccc(O)cc23)cc1 | inactive
COc1ccc(C(=O)NC2CC3CCCC(C2)N3Cc2ccccc2)cc1OC (stereo not given) | inactive
COc1ccccc1Nc1nnc(C)c(=O)[nH]1 | inactive
CCCOc1ccc(C(O)(CCC)CCN2CCCCC2)cc1 (stereo not given) | inactive
CCN1C(=O)c2cccc3c(S(=O)(=O)Nc4ccccc4O)ccc1c23 | inactive
CCOC(=O)c1c(NC(=O)CCC(=O)N2CCOCC2)sc2c1CC(C)(C)OC2 | inactive
CCCn1nnc(NC(=O)C(c2ccccc2)c2ccccc2)n1 | inactive
CN1CCc2nc3ccc(F)cc3c(C(N)=O)c2C1 | inactive
CCC(C)C(=O)Nn1c(C2CC2)nc2cc(OC)c(OC)cc2c1=O (stereo not given) | inactive
CC(Cc1ccc(O)cc1)NCC(O)c1cc(O)cc(O)c1 (stereo not given) | inactive
Nc1nonc1-c1nc2ccccc2n1CC(=O)NC1CCCC1 | inactive
COc1ccc(CNC(=O)Nc2cccs2)cc1OC | inactive
CC(C)n1nc(C(=O)Nc2ccc(-n3cnnn3)cc2)c2ccccc2c1=O | inactive
CCn1c(SCc2ccc(C(=O)Nc3nccs3)cc2)nnc1-c1ccc(N)cc1 | inactive
COc1ccc(NC(=O)c2ccccc2NC(=O)CSc2ccc(C)cc2)cc1 | inactive
NCCCCCC(=O)Nc1ccncc1 | inactive
Cc1ccc(-c2nn3c(C)nnc3c3ccccc23)cc1S(=O)(=O)NCc1ccccc1 | inactive

Compound | activity, higher = inhibition
CC(OC(=O)c1c[nH]c2ccccc12)C(=O)N1CCCC1 (stereo not given) | inactive
Cc1cc(NC(=O)CSc2nc3ccccc3c(=O)n2-c2ccccc2)no1 | inactive
COc1ccccc1C(=O)COC(=O)C1(C)CC1(Cl)Cl (stereo not given) | inactive
Cc1ccc(C(C)C)c(OCC#CCN2CCOCC2)c1 | inactive
CCOc1ccc(S(=O)(=O)NCc2ccccn2)cc1NC(=O)c1ccccc1 | inactive
O=C(Cn1c(=O)oc2cc(S(=O)(=O)N3CCCCC3)ccc21)N1CCc2ccccc21 | inactive
CCN(C(=O)COc1ccc(C)cc1OC)c1cccc2ccccc12 | inactive
COc1cc(C(=O)NCCc2cn3ccc(C)cc3n2)cc(OC)c1OC | inactive
COc1ccccc1-c1cccc2nccn12 | inactive
O=C(Nc1ccc2c(c1)nc1n2CCOC1)c1ccccc1 | inactive
COc1cccc(NC(=O)CSc2nnc(Cc3ccc(OC)c(OC)c3)o2)c1 | inactive
Cc1cc(/C=C2\C(=N)N3C(SCc4ccccc4)=NSC3=NC2=O)c(C)n1Cc1ccccc1 | inactive
COc1ccccc1NC(=O)c1ccccc1NC(=O)c1ccccn1 | inactive
COc1ccc2c(CC(=O)Nc3ccccc3OC)coc2c1 | inactive
COc1cc(/C=C/C(=O)O)ccc1S(=O)(=O)N1CCCc2ccccc21 | inactive
COC(=O)c1ccc2c(=O)n(Cc3ccco3)c(SCC(=O)Nc3cc(C)on3)nc2c1 | inactive
CCOC(=O)C[C@@H](C#N)NC(=O)[C@@H]1CCCN1C(=O)[C@@H](NC(=O)c1ccc(N)c(Cl)c1)C(C)(C)C | inactive
Cc1ccc(-n2nnc3c(=O)n(CC(=O)OCc4ccccc4)cnc32)cc1 | inactive
CCC(=O)Nc1ccc(-c2nnc(SCc3ccc(C(=O)Nc4nccs4)cc3)n2CC)cc1 | inactive
O=C(O)/C=C/C(=O)Nc1cccc(C(F)(F)F)c1 | inactive
Cc1ccc2c(c1)N(CC(=O)N1CCCCCC1)C(=O)C(C)O2 (stereo not given) | inactive
C[C@@H]1CN([C@H](C)CO)C(=O)CCCn2cc(nn2)CO[C@H]1CN(C)C(=O)c1ccccc1 | inactive
COc1ccc(CCNC(=O)[C@@H](NC(N)=O)C(C)C)cc1 | inactive
